Test results from US11459546B2, “Method for producing somatic cell, somatic cell, and composition” (Kyoto Prefectural Public University Corporation, priority 2016, dated 2022).

Key:
human fibroblasts [1] = assay: Induction of brown adipocyte from human fibroblast, UCP1 immunostaining (Example A); format: cell-based; conditions: from comparison of combinations of Table 1, FIG. 1
Description: (§1) As materials, human fibroblasts were purchased from DS Pharma Biomedical Co., Ltd. The fibroblasts were derived from a skin of a human. The human fibroblasts were seeded on 35 mm dishes at a rate of 8×10^4 cells per a dish, and cultured in DMEM high glucose medium (Wako Pure Chemical Industries, Ltd.) to which 10% fetal bovine serum (FBS), 100 U/ml penicillin and 100 μg/ml streptomycin under a condition at 37° C. and 5% CO2 were added for 2 days. Note that the DMEM refers to a Dulbecco's Modified Eagle Medium. […] Subsequently, the cells were cultured under the condition at 37° C. and 5% CO2 while exchanging the medium to the medium having the same composition every 3 days. The details of the compounds listed in Table 1 are as aforementioned in the present specification. As a result of culturing the human fibroblasts in accordance with the above (2), adipocyte-like cells appeared 6 days after the onset of culturing. Twenty-one days after the onset of culturing, the cells were immobilized with 2% paraformaldehyde, and then immunostained. […] The lower pictures show phase-contrast microscopic images in the same visual fields as of the upper pictures.

human fibroblasts [2] = assay: Induction of osteoblast from human fibroblast, von Kossa staining (Example C); format: cell-based; conditions: from comparison of combinations of Table 6, FIG. 14
Description: As materials, human fibroblasts were purchased from DS Pharma Biomedical Co., Ltd. The fibroblasts were derived from a skin of a human. The human fibroblasts were seeded on 35 mm dishes at a rate of 5×10^4 cells per a dish, and cultured in DMEM medium (Gibco) to which 10% fetal bovine serum (FBS), 100 U/ml penicillin and 100 μg/ml streptomycin under a condition at 37° C. and 5% CO2 were added to become confluent. Note that the DMEM refers to a Dulbecco's Modified Eagle Medium. The medium in the dish containing the human fibroblasts was exchanged to a RPMI1640 with L-Glutamine and Phenol Red (Wako Pure Chemical Industries, Ltd.) containing an osteoblast-inducer reagent (Takara Bio Inc.), and a low molecular weight compound added according to Table 1. Subsequently, the cells were cultured under the condition at 37° C. and 5% CO2 while exchanging the medium to the medium having the same composition every 3 days. The details of the compounds listed in Table 6 are as aforementioned in the present specification. As a result of culturing human fibroblasts according to the above (2), osteoblast-like cells appeared 7 days after the onset of culturing. Twenty-one days after the onset of culturing, the cells were subjected to von Kossa staining according to a conventional method, to evaluate the presence or absence of calcium deposition. In the figure, the upper pictures show the results of von Kossa staining, and the lower pictures present phase-contrast microscopic images in the same visual fields as of the upper pictures.

human fibroblasts [3] = assay: Induction of chondrocyte from human fibroblast, Alcian Blue staining (Example D); format: cell-based; conditions: from comparison of combinations of Table 7, FIG. 15
Description: As materials, human fibroblasts were purchased from DS Pharma Biomedical Co., Ltd. The fibroblasts were derived from a skin of a human.
The human fibroblasts were seeded on 35 mm dishes at a rate of 5×10^4 cells per a dish, and cultured in DMEM medium (Gibco) to which 10% fetal bovine serum (FBS), 100 U/ml penicillin and 100 μg/ml streptomycin under a condition at 37° C. and 5% CO2 were added to become confluent. Note that the DMEM refers to a Dulbecco's Modified Eagle Medium.
The medium in the dish containing the human fibroblasts was exchanged to a DMEM (Thermo Fisher Scientific, Inc.) containing Insulin-Transferrin-Selenium (Thermo Fisher Scientific, Inc., final concentration: 1%), ascorbic acid-2-phosphate (Wako Pure Chemical Industries, Ltd., final concentration: 50 μg/ml), dexamethasone (Wako Pure Chemical Industries, Ltd., final concentration: 0.1 μM), TGF-β3 (PeproTech, Inc., final concentration: 10 ng/ml), L-proline (Nacalai Tesque, final concentration: 40 μg/ml), Antibiotic-Antimycotic (Thermo Fisher Scientific, Inc., final concentration: 1×), and a low molecular weight compound added according to Table 1. Subsequently, the cells were cultured under the condition at 37° C. and 5% CO2 while exchanging the medium to the medium having the same composition every 3 days. The details of the compounds listed in Table 7 are as aforementioned in the present specification.
As a result of culturing human fibroblasts according to Example (2), chondrocyte-like cells appeared 7 days after the onset of culturing. Twenty-one days after the onset of culturing, the cells were subjected to Alcian Blue staining according to a conventional method, to evaluate the presence or absence of acid polysaccharides which are a cartilage matrix. In the figure, the upper pictures show the results of Alcian Blue staining, and the lower pictures present phase-contrast microscopic images in the same visual fields as of the upper pictures.

human fibroblasts [4] = assay: Induction of cardiomyocyte from human fibroblast, cTnT immunostaining (Example F); format: cell-based; conditions: from comparison of combinations of Table 9, FIG. 17
Description: as §1, with “medium (Gibco)” for “medium (Wako Pure Chemical Industries, Ltd.)”, “Table 9” for “Table 1”, “(2), shrinking or beating single” for “(2), adipocyte-like”, “cells or small cell masses were recognized 8” for “cells appeared 6”, “culturing. Twenty-one or more days after the onset of culturing, a large number of shrinking or beating cardiomyocyte-like masses were observed.” for “culturing.”, “immunostained. For staining, an anti-cTnT antibody (ab10214, Abcam PLC; diluted 200-fold) was used.” for “immunostained.”

human fibroblasts [5] = assay: Induction of neural cell from human fibroblast, βIII-tubulin immunostaining (Example E); format: cell-based; conditions: from comparison of combinations of Table 8, FIG. 16
Description: as §1, with “Table 8” for “Table 1”, “(2), nerve-like projection structures were recognized 5” for “(2), adipocyte-like cells appeared 6”, “culturing. Fourteen” for “culturing. Twenty-one”, “immunostained. For staining, an anti-βIII-tubulin antibody (MMS-435P, Covance; diluted 1000-fold) was used.” for “immunostained.”

[6] = tested on: β adrenergic receptor signaling pathway in compound-induced brown adipocytes; assay: Isoproterenol or forskolin treatment of compound-induced brown adipocytes, mRNA by QRT-PCR; format: cell-based, human; conditions: for expression of Cited1 after treatment / expression of Ckmt1 after treatment: 3 or 6 hours, FIGS. 12 C and D
Description: For the purpose of quantifying gene expression, the whole RNA was extracted from the fibroblasts treated with each compound, using the RNeasy Mini kit (QIAGEN N.V). As a control, a fibroblast was cultured in parallel, in the adipocyte medium. The cells were treated with 0.1 μM, 1 μM and 10 μM isoproterenol or forskolin for 3 hours or 6 hours, and then the whole RNA was extracted from the brown adipocytes induced with the compound and the control cell. The whole RNA was reversely transferred with ReverTraAce® PCR RT Master Mix with gDNA Remover (TOYOBO CO., LTD.), and then subjected to a real-time PCR analysis using Power SYBR Green PCR Master Mix (Thermo Fisher Scientific, Inc.). For one standard, 3 reactions were carried out under the following condition: 40 cycles of reactions at 95° C. for 10 minutes, at 95° C. for 15 seconds, and at 60° C. for 60 seconds. All results were standardized by the amount of the Tbp mRNA.
Thermogenesis through the Ucp1 is regulated through the sympathetic nervous system and the […] receptor signaling pathway in the brown adipocytes. For the purpose of evaluating the thermogenetic ability in the […] induced with the compounds, the brown adipocytes were treated with isoproterenols (β adrenergic receptor agonist) at 3 different concentrations for 3 hours or 6 hours, and then the Ucp1 mRNA was quantified (FIG. 12 A).

Row | Compound | role of the component for differentiation of the osteoblasts (human fibroblasts [2]) | role of the component for differentiation of the chondrocytes (human fibroblasts [3]) | role of the component for differentiation into cardiomyocytes (human fibroblasts [4]) | also measured
1 | NC(=O)c1ccc(-c2nc(-c3ccc4c(c3)OCO4)c(-c3ccccn3)[nH]2)cc1 [SB431542] | important | important |  | role of the component for differentiation into brown adipocytes (human fibroblasts [1]): preferable
2 | O=C(NOC[C@H](O)CO)c1ccc(F)c(F)c1Nc1ccc(I)cc1F [PD0325901] | should not be added | not contained | important | 
3 | Cc1c[nH]c(-c2cnc(NCCNc3ccc(C#N)cn3)nc2-c2ccc(Cl)cc2Cl)n1 [CHIR99021] | important | important |  | 
4 | c1ccc2c(-c3cnn4cc(-c5ccc(N6CCNCC6)cc5)cnc34)ccnc2c1 [LDN193189] | important | important |  | 
5 | Cc1cccc(-c2n[nH]cc2-c2ccc3ncccc3n2)n1 [Repsox] |  |  | important | 
6 | c1cc(-c2cnn3cc(-c4ccc(OCCN5CCCCC5)cc4)cnc23)ccn1 [dorsomorphin, Dorsomorphin] |  | not contained | important | role of the component for differentiation into brown adipocytes (human fibroblasts [1]): preferable; role of the component for differentiation into neural cells (human fibroblasts [5]): important
7 | C=C[C@@]1(C)CC(=O)[C@]2(O)[C@@]3(C)[C@@H](O)CCC(C)(C)[C@@H]3[C@H](O)[C@H](OC(C)=O)[C@@]2(C)O1 [forskolin, Forskolin] | important | important | important | Ucp1 expression, cells treated for 6 hours versus 3 hours ([6]; 0.1, 1 or 10 μM, FIG. 12 B): more enhanced; expression of Cited1 after treatment [6]: no significant change; expression of Ckmt1 after treatment [6]: no significant change
8 | CC(C)NCC(O)c1ccc(O)c(O)c1 (stereo not drawn) [isoproterenol, Isoproterenol] |  |  |  | Ucp1 mRNA, 3-hour treatment ([6]; 0.1, 1 or 10 μM, versus untreated cells, FIG. 12): slightly increased; expression of Cited1 after treatment [6]: no significant change; expression of Ckmt1 after treatment [6]: no significant change
